Article PMC6152717, “Novel Tacrine-Scutellarin Hybrids as Multipotent Anti-Alzheimer’s Agents: Design, Synthesis and Biological Evaluation” (Molecules : A Journal of Synthetic Chemistry and Natural …, 2017)
Marks after values point to notes of the source that are not given here.

Columns and labels:
[1] = test system: AChE isolated from rat cortex homogenate; conditions: cited from earlier work
BChE from rat serum = conditions: read-out: BChE IC50 ± SEM; cited from earlier work
[2] = printed in DPPH EC50 column; cited from earlier work
[3] = test system: Electric eel AChE (EeAChE); conditions: cited from earlier work
[4] = test system: BChE from equine serum (eqBChE); conditions: read-out: BChE IC50 ± SEM; cited from earlier work
[5] = test system: AChE from human erythrocytes (hAChE); conditions: read-out: AChE IC50 ± SEM; cited from earlier work
DPPH antioxidant assay = conditions: mean of at least three experiments; 30 min, methanol
Description: The free phenolic group of 1 is presumably able to easily undergo keto-enol tautomerism which has previously been postulated to be responsible for radical scavenging. Within the family of 6-Cl-THA-scutellarin hybrids, all the phenolic hydroxyls of scutellarin moiety are hindered by methyl containing methoxy groups and thus unable to exert such an effect under in vitro conditions. However, the antioxidant activity of K1383–K1389 in vivo may occur due to metabolism of the compound whereby demethylation of one or more methoxy groups can take place. This is known to be the case of 7-methoxytacrine and its major metabolite found in vivo, 7-hydroxytacrine.
DPPH, methanol, and Trolox (as reference standard) were purchased from Sigma-Aldrich. Polystyrene Nunc 96-well microplates with flat bottom shape (Thermo Fisher Scientific) were used for measuring purposes. All of the assays were carried out in methanol. DPPH solution was prepared at 0.2 mM concentration. […] The reaction time constituted 30 min. The antioxidant activity was determined by measuring the […] in absorbance at 517 nm at laboratory temperature using Synergy 2 multimode microplate reader. Each concentration was tested in triplicate. The software GraphPad Prism version 5 for Windows was used for statistical data evaluation.

HepG2 cells = test: Hepatotoxicity on HepG2 cells, MTT assay; format: cell-based; conditions: for IC50: Homo sapiens, HepG2, MTT, 24 h incubation, mean ± SEM of three independent experiments; for cytotoxicity compared to reference 6-Cl-THA: HepG2, 24 h incubation
Description: Hepatotoxicity of tested compounds was evaluated using the HepG2 cell line originally from human liver hepatocellular carcinoma (ATCC, Manassas, VA, USA). These cells were plated at density 17 × 10^3 per well in a 96-well plate in Dulbecco’s Modified Eagle’s Medium (DMEM; Gibco, Langley, OK, USA) with 10% FBS (Gibco) and were left to attach overnight. […] Stock solutons of tested compounds were prepared in DMSO (Sigma Aldrich, Prague, Czech Republic) and then diluted in DMEM medium. […] Subsequently, the medium was aspirated and 100 μL MTT solution (0.5 mg/mL) in serum-free DMEM medium was added to each well. Cells were then incubated for 1 h. The medium was then discarded and purple crystals of MTT formazan were dissolved in 100 μL DMSO under shaking. The absorbance was measured with a microplate reader (BioTek) at a minimum wavelength of 570 nm. The IC50 values were calculated using four parametric nonlinear regression with statistic software GraphPad Prism. Data were obtained from three independent experiments performed in triplicates.

[6] = PAMPA-BBB permeation assay; format: in vitro ADME; conditions: for Prediction of BBB penetration: PAMPA-BBB class; for Papp at 100 μM / BBB crossing prediction: PAMPA-BBB; for Papp at 100 μM: PBS pH 7.4, 100 μM donor, mean ± SD of three independent experiments, read-out: Pe; for BBB crossing prediction: passive diffusion model
Description: The parallel artificial membrane permeation assay (PAMPA) has been used based on reported protocol. The filter membrane of the donor plate was coated with PBL (Polar Brain Lipid, Avanti, Alabaster, AL, USA) in dodecane (4 μL of 20 mg/mL PBL in dodecane) and the acceptor well was filled with 300 μL of PBS pH 7.4 buffer (VD). Tested compounds were dissolved first in DMSO and then diluted with PBS pH 7.4 to reach the final concentration 100 μM in the donor well. […] 300 μL of the donor solution was added to the donor wells (VA) and the donor filter plate was carefully put on the acceptor plate so that coated membrane was “in touch” with both donor solution and acceptor buffer. Test compound diffused from the donor well through the lipid membrane (Area = 0.28 cm^2) to the acceptor well. The concentration of the drug in both donor and the acceptor wells was assessed after 3, 4, 5 and 6 h of incubation in quadruplicate using the Synergy HT UV plate reader at the maximum absorption wavelength of each compound. Concentration of the compounds was calculated from the standard curve and expressed as the permeability (Pe) according to Equation (2): (2) logPe=log {C×−ln(1−[drug]acceptor/[drug]equilibrium)} where C = (VD×VA/(VD+VA)×Area×time)

[7] = target: T1, human acetylcholinesterase (hAChE) (Homo sapiens, UniProt P22303); test: biochemical; conditions: AChE from human erythrocytes; mean of three independent measurements ± SEM
T1 construct: Human erythrocyte hemolyzate, prepared from blood samples, was applied as a source of AChE (EC 3.1.1.7); from tissue; host or cells: human erythrocytes (hemolyzate from blood of healthy volunteers)
T1 sequence (P22303 32-617 isoform P22303-2 limits assumed): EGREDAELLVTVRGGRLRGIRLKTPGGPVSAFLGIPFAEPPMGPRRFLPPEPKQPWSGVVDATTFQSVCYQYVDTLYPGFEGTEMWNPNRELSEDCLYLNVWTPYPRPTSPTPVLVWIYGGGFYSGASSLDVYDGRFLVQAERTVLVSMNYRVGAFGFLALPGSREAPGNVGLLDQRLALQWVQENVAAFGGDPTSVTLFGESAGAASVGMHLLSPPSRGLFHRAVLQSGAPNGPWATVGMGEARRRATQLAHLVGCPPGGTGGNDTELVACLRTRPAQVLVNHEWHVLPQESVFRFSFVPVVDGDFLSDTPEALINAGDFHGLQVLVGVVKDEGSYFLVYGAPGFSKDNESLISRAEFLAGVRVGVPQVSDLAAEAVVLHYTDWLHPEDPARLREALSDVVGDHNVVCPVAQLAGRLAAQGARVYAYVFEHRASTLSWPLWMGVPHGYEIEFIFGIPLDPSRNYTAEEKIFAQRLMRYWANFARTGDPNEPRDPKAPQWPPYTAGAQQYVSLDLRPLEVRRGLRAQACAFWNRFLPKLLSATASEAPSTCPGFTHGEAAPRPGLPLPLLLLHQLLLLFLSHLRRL
Description: (§1) Human erythrocyte hemolyzate, prepared from blood samples, was applied as a source of AChE (EC 3.1.1.7). […] The erythrocytes were washed three times with phosphate buffer (PB; 0.1 M, pH 7.4) and then hemolyzed in PB (0.01 M, Ph 7.4) in ration 1:10 (w/w), frozen and kept under −80 °C before use. Human plasma BChE (EC 3.1.1.8), 5,5′-dithiobis(2-nitrobenzoic acid) (Ellman’s reagent, DTNB), phosphate buffer solution (PBS, pH 7.4), acetylthiocholine iodide (ATCh), and butyrylthiocholine (BTCh) were purchased from Sigma-Aldrich. Polystyrene Nunc 96-well microplates with flat bottom shape (ThermoFisher Scientific, Bremen, Germany) were used for the measuring purposes. All of the assays were carried out in 0.1 M KH2PO4/K2HPO4 buffer, pH 7.4. […] The assay medium (100 μL) consisted of 40 μL of 0.1 M PBS (pH = 7.4), 20 μL of 0.01 M DTNB, 10 μL of cholinesterase, 10 µL of tested compound and 20 μL of 0.01 M substrate (ATCh or BTCh iodide solution). Assayed solutions of target compounds (10 μL, 10^−^3–10^−^9 M) were preincubated with enzyme for 5 min. The reaction was initiated by addition of 20 μL of substrate. […] Each concentration was assayed in triplicate. Percentage of inhibition (I) was calculated from the measured data as follows Equation (1): (1) I=(1−ΔAi/ΔA0)×100 [%]
(§2) ΔAi indicates absorbance change provided by cholinesterase exposed to tested compound. ΔA0 indicates absorbance change caused by intact cholinesterase, where phosphate bufffer was applied in the same was as the anticholinesterase compound. […] The IC50 values are expressed as a mean ± SEM.

[8] = target: T2, human butyrylcholinesterase (hBChE) (Homo sapiens, UniProt P06276); test: biochemical; conditions: BChE from human plasma; mean of three independent measurements ± SEM
T2 construct: Human plasma BChE (EC 3.1.1.8); purchased Sigma-Aldrich; host or cells: human plasma
T2 sequence (P06276 29-602): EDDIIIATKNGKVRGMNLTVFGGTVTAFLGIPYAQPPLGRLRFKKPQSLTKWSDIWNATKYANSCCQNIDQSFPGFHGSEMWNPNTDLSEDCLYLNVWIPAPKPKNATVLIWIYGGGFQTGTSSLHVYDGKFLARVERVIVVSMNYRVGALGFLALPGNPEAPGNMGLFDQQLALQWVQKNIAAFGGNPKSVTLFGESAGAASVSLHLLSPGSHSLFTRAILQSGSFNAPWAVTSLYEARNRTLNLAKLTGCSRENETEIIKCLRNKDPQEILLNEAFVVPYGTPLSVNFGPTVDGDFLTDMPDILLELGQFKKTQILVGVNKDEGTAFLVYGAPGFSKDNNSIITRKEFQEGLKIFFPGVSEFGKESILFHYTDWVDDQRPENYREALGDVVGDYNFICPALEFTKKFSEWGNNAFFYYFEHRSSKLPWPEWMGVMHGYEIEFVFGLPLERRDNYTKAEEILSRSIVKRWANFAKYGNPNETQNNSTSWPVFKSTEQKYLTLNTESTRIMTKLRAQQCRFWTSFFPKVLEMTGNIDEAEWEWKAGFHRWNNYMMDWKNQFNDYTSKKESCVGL
Description: It is well established that the activity of AChE decreases during the course of AD, while that of BChE increases. Several reports indicate the ability of BChE to compensate the lack of AChE thus continuing in regulation of cholinergic transmission. Therefore, the agents with affinity to both cholinesterases could play a more profound role in the AD therapy.
as §1, §2

hAChE = target: T3, hAChE (Homo sapiens, UniProt P22303); test: Kinetic study of AChE inhibition (Lineweaver-Burk, nonlinear regression); format: biochemical
T3 construct: Human erythrocyte hemolyzate, prepared from blood samples, was applied as a source of AChE (EC 3.1.1.7); from tissue; host or cells: human erythrocytes (hemolyzate from blood of healthy volunteers)
T3 sequence (P22303 32-617 isoform P22303-2 limits assumed): as the sequence (P22303 32-617 isoform P22303-2 limits assumed) above
Description: To determine the interaction of K1383 with hAChE, a kinetic study was carried out. Enzyme rate curves were obtained at several substrate concentrations of the inhibitor.
Inhibitors bind reversibly to both free AChE and AChE-substrate complex with equal affinity (Ki = Ki′) thus affecting the binding of substrate in the active site of enzyme and interacting with its allosteric peripheral anionic site (PAS). Interaction in this site causes conformational changes of the enzyme, including its active site. Km remained unchanged, while Vmax was reduced at higher concentration of K1383.
The kinetic study of AChE inhibition was performed using Ellman’s method. […] The type of inhibition and corresponding inhibition constant (Ki and Ki′) were determined by the nonlinear regression analysis of the substrate velocity curves at different concentrations of tested compounds. Results for each type model of inhibition (competitive, uncompetitive, mixed and mixed-non-competitive) were compared with sum-of-squares F-test. Lineweaver-Burk (double-reciprocal) plot, used for visualization of the enzyme-inhibitor interactions, was calculated using weighted least-squares regression. All calculations were performed using the GraphPad Prism software.
Figure 2 Steady-state inhibition of AChE hydrolysis of substrate acetylthiocholine (ATCh) by compound K1383 at different concentrations. […]

| Structure (SMILES) | EC50 (DPPH antioxidant assay) | IC50 (HepG2 cells) | Prediction of BBB penetration [6] | Papp at 100 μM [6] | IC50 [7] | IC50 [8] | further results |
| --- | --- | --- | --- | --- | --- | --- | --- |
| CCN(CC)c1cccc(-c2cc(=O)c3c(O)c(OC)c(OC)cc3o2)c1 [Compound 1] | – | – | – | – | – | – | IC50 ([1]; AChE isolated from rat cortex homogenate, read-out: AChE IC50 ± SEM): 0.57 ± 0.02 µM; SI (BChE IC50/AChE IC50) ([1]; rat AChE vs rat BChE): 39.7; IC50 (BChE from rat serum): 22.6 ± 0.22 µM; ORAC-FL antioxidant power [2]: 1.3 ± 0.02 ^a µM of Trolox/µM of tested compound |
| COc1cc2oc(-c3cccc(OCC(=O)NCCCCCCNc4c5c(nc6cc(Cl)ccc46)CCCC5)c3)cc(=O)c2c(OC)c1OC [Compound 2] | – | – | – | – | – | – | IC50 ([3]; Electric eel AChE activity, read-out: AChE IC50 ± SEM (converted)): 0.0472 µM; SI (BChE IC50/AChE IC50) ([3]; electric eel AChE vs equine serum BChE): 20.5; IC50 [4]: 0.9689 ± 0.00826 µM; ORAC-FL antioxidant power [2]: 0.47 ± 0.03 ^a µM of Trolox/µM of tested compound; IC50 [5]: 0.0325 ± 0.00025 µM |
| Nc1c2c(nc3cc(Cl)ccc13)CCCC2 [Compound 6-Cl-THA, 6-Chlorotacrine, reference compound] | > 100 µM | 7.13 ± 0.11 µM | CNS+ (high BBB permeation predicted, Pe × 10^−6 cm/s > 4.0) | 5 ± 0.45 ×10⁻⁶ cm/s | – | – | – |
| COc1cc2oc(-c3ccc(NCCNc4c5c(nc6cc(Cl)ccc46)CCCC5)cc3)cc(=O)c2c(OC)c1OC [Compound K1383] | > 500 µM | 3.4 ± 1.05 µM | CNS± (BBB permeation uncertain, Pe × 10^−6 cm/s from 4.0 to 2.0) | 2.88 ± 0.1 ×10⁻⁶ cm/s | 0.00163 ± 0.00013 µM | 1.21 ± 0.07 µM | type of inhibition (hAChE; nonlinear regression analysis, p < 0.05): mixed, non-competitive; Ki (hAChE; substrate ATCh 0.156–1.250 mM, Ki = Ki′): 0.00275 ± 0.00032 µM |
| COc1cc2oc(-c3ccc(NCCCNc4c5c(nc6cc(Cl)ccc46)CCCC5)cc3)cc(=O)c2c(OC)c1OC [Compound K1384] | > 500 µM | 5.77 ± 1.68 µM | CNS+ (high BBB permeation predicted, Pe × 10^−6 cm/s > 4.0) | 5.01 ± 2.2 ×10⁻⁶ cm/s | 0.0019 ± 0.0001 µM | 0.174 ± 0.007 µM | BBB crossing prediction [6]: potential to cross the BBB |
| COc1cc2oc(-c3ccc(NCCCCNc4c5c(nc6cc(Cl)ccc46)CCCC5)cc3)cc(=O)c2c(OC)c1OC [Compound K1385] | > 500 µM | 3.29 ± 0.82 µM | CNS± (BBB permeation uncertain, Pe × 10^−6 cm/s from 4.0 to 2.0) | 2.6 ± 0.55 ×10⁻⁶ cm/s | 0.00515 ± 0.00018 µM | 8.69 ± 0.04 µM | – |
| COc1cc2oc(-c3ccc(NCCCCCNc4c5c(nc6cc(Cl)ccc46)CCCC5)cc3)cc(=O)c2c(OC)c1OC [Compound K1386] | > 500 µM | 3.89 ± 1.08 µM | CNS± (BBB permeation uncertain, Pe × 10^−6 cm/s from 4.0 to 2.0) | 3.93 ± 1 ×10⁻⁶ cm/s | 0.0267 ± 0.001 µM | 0.934 ± 0.045 µM | – |
| COc1cc2oc(-c3ccc(NCCCCCCNc4c5c(nc6cc(Cl)ccc46)CCCC5)cc3)cc(=O)c2c(OC)c1OC [Compound K1387] | > 500 µM | 7.76 ± 1.47 µM | CNS± (BBB permeation uncertain, Pe × 10^−6 cm/s from 4.0 to 2.0) | 3.31 ± 0.38 ×10⁻⁶ cm/s | 0.031 ± 0.0015 µM | 6.46 ± 0.3 µM | – |
| COc1cc2oc(-c3ccc(NCCCCCCCNc4c5c(nc6cc(Cl)ccc46)CCCC5)cc3)cc(=O)c2c(OC)c1OC [Compound K1388] | > 500 µM | > 32 µM | CNS+ (high BBB permeation predicted, Pe × 10^−6 cm/s > 4.0) | 4.92 ± 0.02 ×10⁻⁶ cm/s | 0.0241 ± 0.0009 µM | 2.81 ± 0.11 µM | cytotoxicity compared to reference 6-Cl-THA (HepG2 cells): slightly suppressed cytotoxicity; BBB crossing prediction [6]: potential to cross the BBB |
| COc1cc2oc(-c3ccc(NCCCCCCCCNc4c5c(nc6cc(Cl)ccc46)CCCC5)cc3)cc(=O)c2c(OC)c1OC [Compound K1389] | > 500 µM | > 16 µM | CNS+ (high BBB permeation predicted, Pe × 10^−6 cm/s > 4.0) | 8.1 ± 3.1 ×10⁻⁶ cm/s | 0.0223 ± 0.0007 µM | 2.21 ± 0.13 µM | cytotoxicity compared to reference 6-Cl-THA (HepG2 cells): slightly suppressed cytotoxicity; BBB crossing prediction [6]: potential to cross the BBB |
| Cc1c(C)c2c(c(C)c1O)CCC(C)(C(=O)O)O2 (stereo not drawn) [trolox, Trolox, reference compound] | 16.2 ± 0.42 µM | – | – | – | – | – | – |
